Source: patent publication US11060715B2, “Ex vivo proliferation of epithelial cells” (PROPAGENIX INC., priority 2015, dated 2021)
Counter-ions that a name gives are not always drawn.

Tests used:
[1] = tested on: late passage prostate epithelial cells; test: Proliferation of late passage prostate epithelial cells in KSFM plus compounds, 5 days; assay type: cell-based, human; details: for total cell number after 5 days: KSFM plus individual compound alone, 1 μM and 0.2 μM (FIG. 16)
Method: Stocks of certain chemicals used in the study were prepared by dissolving in DMSO to 10 mM. The chemical stocks were added to culture media to desired final concentrations, as described in Examples 2 to 5 and shown in FIGS. 1 to 17, from the time when cell culture was initiated.
In a control experiment with no added compound, there was minimum increase of cell numbers after 5 days.
In control experiment with no inhibitor added to KSFM, there was minimum increase of cell numbers after 5 days. […] As described above, these include Rho kinase inhibitors (i.e., Rho-associated protein kinase inhibitors) such as Y-27632, SR 3677, GSK 429286 and Thiazovivin; PAK1 inhibitor IPA-3; and myosin II inhibitor (i.e., non-muscle myosin II (NM II) inhibitor) Blebbistatin.

keratinocytes = test: Expansion of keratinocytes in KSFM supplemented with combinations of components; assay type: cell-based, human; details: for cell growth rate: KSFM with EGF, isoproterenol, A 83-01 and rHA
Method: In another experiment, keratinocytes were cultured in KSFM supplemented with various combinations of components.
In another experiment, keratinocytes were cultured in the presence of increasing doses of ROCK inhibitor (Y-27632) or Myosin II ATPase inhibitor (blebbistatin), in KSFM supplemented with EGF (0.5 ng/mL), isoproterenol (3 μM), A 83-01 (1 μM), and recombinant human serum albumin (expressed in rice; 100 μg/mL).
In another experiment, keratinocytes were cultured in the presence of increasing doses (between 10 nM to 2 μM) of retinoic acid receptors (RAR) antagonist BMS-453 or retinoic acid receptors (RAR) antagonist BMS-195614, in KSFM supplemented with EGF (0.5 ng/mL), isoproterenol (3 μM), A 83-01 (1 μM), and recombinant human serum albumin (expressed in rice; 100 μg/mL).

[2] = tested on: human telomerase reverse transcriptase (hTERT) gene; test: hTERT expression by quantitative real-time PCR in bronchial epithelial cells; assay type: cell-based; details: KSFM
Method: (§1) Total RNA was prepared using TRIzol® Plus RNA Purification Kit (Life Technologies, 12183-555) and PureLink® RNA Mini Kit (Life Technologies, 12183018A), following the manufacturer's instructions. One hundred nanogram total RNA was used for the determination of human telomerase reverse transcriptase (hTERT) expression using the TaqMan® RNA-to-CT™ 1-Step Kit (Life Technologies, 4392938), following the protocol provided by the supplier. hTERT primers and Taqman® probe used were as follows: forward primer, 5′-[…]-3′ (SEQ ID NO:7), reverse primer, 5′-[…]-3′ (SEQ ID NO:8) and Taqman® probe, 5′-[…]-3′ (SEQ ID NO:9).
(§2) In this example, hTERT expression in epithelial cells was assessed in the presence of an ALK5 inhibitor, a Rho kinase inhibitor (i.e., a Rho-associated protein kinase inhibitor), or both. Expression of hTERT gene was examined by quantitative real-time PCR in bronchial epithelial cells and prostate epithelial cells. The cells were treated with an ALK5 inhibitor, A83-01, or a Rho kinase inhibitor (i.e., a Rho-associated protein kinase inhibitor), Y-27632, or both inhibitors, at different passages in KSFM.

[3] = tested on: human telomerase reverse transcriptase (hTERT) gene; test: hTERT expression by quantitative real-time PCR in prostate epithelial cells; assay type: cell-based; details: KSFM
Method: as §1, §2
As shown in FIG. 6A and FIG. 6B, prostate epithelial cells at early passage (p2) expressed low level of hTERT, which quickly diminished at passage 3 and became non-detectible by passage 5.

[4] = tested on: prostate epithelial cells; test: Growth (population doublings) of prostate epithelial cells in culture; assay type: cell-based, human; details: added to KSFM
Method: (§3) Epithelial cells (prostate epithelial cells and bronchial epithelial cells) were plated at 3,000-10,000 viable cells/cm^2 in tissue culture vessels, using culture medium as indicated in Examples 2 to 5 and FIGS. 1 to 17, and incubated at 37° C. with 5% CO2. The medium was changed every 2 or 3 days. Cells were sub-cultured using standard trypsinization method when they were about 70-90% confluent. Total cell number was determined using the Countess II Automated Cell Counter (Life Technologies, AMQAX1000) following manufacturer's instructions.
(§4) A formula used for the calculation of population doublings (PD) is presented in Equation A: n=3.32*(log Y−log I)+X Equation A where n=the final PD number at end of a given subculture, Y=the cell yield at the time of harvesting, I=the cell number used as inoculum to begin that subculture, and X=the doubling level of the inoculum used to initiate the subculture being quantitated.
(§5) Prostate and bronchial epithelial cells were grown in KSFM in the presence of Rho kinase inhibitor (i.e., Rho-associated protein kinase inhibitor) Y-27632.
To examine the effects of additional in vitro and/or ex vivo growth conditions, prostate epithelial cells were grown in KSFM or PrEGM in the presence of media alone, ALK5 inhibitor A83-01, Rho kinase inhibitor (i.e., Rho-associated protein kinase inhibitor) Y-27632, or both (with or without collagen).

[5] = tested on: bronchial epithelial cells; test: Growth (population doublings) of bronchial epithelial cells in culture; assay type: cell-based, human; details: added to KSFM
Method: as §3, §4, §5
Similar to the experiment above, bronchial epithelial cells were grown in KSFM in the presence of media alone, ALK5 inhibitor A83-01, Rho kinase inhibitor (i.e., Rho-associated protein kinase inhibitor) Y-27632, or both (with or without collagen).

[6] = used together with A83-01 in KSFM, 5 μM, 1 μM and 0.2 μM (FIG. 17)
[7] = increasing doses (between 10 nM to 2 μM)

Row | Structure (SMILES) | total cell number after 5 days ([1]; 5 μM) | cell proliferation after 5 days [1, 6] | other results
1 | Cc1ccc2c(c1)C(=O)C1(O)CCN(c3ccccc3)C1=N2 (racemic) [Blebbistatin, (±)-1,2,3,3a-Tetrahydro-3a-hydroxy-6-methyl-1-phenyl-4H-pyrrolo[2,3-b]quinolin-4-one] | did not increase proliferation | synergistically increased | cell growth rate (keratinocytes; increasing doses): No significant increase of cell growth rate
2 | Cc1cccc(-c2nn(C(=S)Nc3ccccc3)cc2-c2ccnc3ccccc23)n1 [A83-01, 3-(6-Methyl-2-pyridinyl)-N-phenyl-4-(4-quinolinyl)-1H-pyrazole-1-carbothioamide] | pronounced increase of total cell number |  | hTERT expression ([2]; early passage (p3)): robustly induced; hTERT expression ([2]; late passage (p6)): sustained measurable hTERT expression; hTERT expression ([3]; early passage (p2)): quickly induced; hTERT expression ([3]; late passage (p5)): sustained measurable hTERT expression; total population doublings [4]: also increased the total population doublings; total population doublings [5]: also increased the total population doublings; cell proliferation after 5 days ([1]; KSFM plus compound alone (FIG. 17)): significantly increased
3 | CC1(C)CC=C(c2ccccc2)c2cc(/C=C/c3ccc(C(=O)O)cc3)ccc21 [BMS-453] |  |  | proliferation of keratinocytes (keratinocytes; 100 nM, with A83-01, EGF, isoproterenol and rHA): further increased the proliferation of keratinocytes; cell growth rate (keratinocytes; [7]): further enhance cell growth rate at sub-micromolar doses
4 | CC1(C)CC=C(c2cnc3ccccc3c2)c2cc(C(=O)Nc3ccc(C(=O)O)cc3)ccc21 [BMS-195614] |  |  | cell growth rate (keratinocytes; [7]): further enhance cell growth rate at sub-micromolar doses
5 | CC1=C(C(=O)Nc2cc3cn[nH]c3cc2F)C(c2ccc(C(F)(F)F)cc2)CC(=O)N1 (stereo not shown) [GSK 429286, 4-[4-(Trifluoromethyl)phenyl]-N-(6-Fluoro-1H-indazol-5-yl)-2-methyl-6-oxo-1,4,5,6-tetrahydro-3-pyridinecarboxamide] | slight increase of total cell numbers | synergistically increased | 
6 | O=C(NC1CCOCC1)c1ccc(-c2cc(-c3c[nH]nc3-c3ccccn3)ccn2)cc1 [GW 788388, 4-[4-[3-(2-Pyridinyl)-1H-pyrazol-4-yl]-2-pyridinyl]-N-(tetrahydro-2H-pyran-4-yl)-benzamide] | pronounced increase of total cell number | little extra increase | 
7 | Oc1ccc2ccccc2c1SSc1c(O)ccc2ccccc12 [IPA-3, 1,1′-Dithiodi-2-naphthtol] | did not increase proliferation | synergistically increased | 
8 | Cc1cccc(-c2n[nH]cc2-c2ccc3ncccc3n2)n1 [RepSox, 2-(3-(6-Methylpyridine-2-yl)-1H-pyrazol-4-yl)-1,5-naphthyridine] | pronounced increase of total cell number | little extra increase | 
9 | NC(=O)c1ccc(-c2nc(-c3ccc4c(c3)OCO4)c(-c3ccccn3)[nH]2)cc1 [SB 431542, 4-[4-(1,3-benzodioxol-5-yl)-5-(2-pyridinyl)-1H-imidazol-2-yl]benzamide] | pronounced increase of total cell number | little extra increase | 
10 | CN(C)CCOc1cc(-c2cn[nH]c2)ccc1NC(=O)C1COc2ccccc2O1 (stereo not shown) [SR 3677, N-[2-[2-(Dimethylamino)ethoxy]-4-(1H-pyrazol-4-yl)phenyl-2,3-dihydro-1,4-benzodioxin-2-carboxamidedihydrochloride] | slight increase of total cell numbers | synergistically increased | 
11 | O=C(NCc1ccccc1)c1csc(Nc2ccncn2)n1 [Thiazovivin, N-Benzyl-[2-(pyrimidin-4-yl)amino]thiazole-4-carboxamide] | slight increase of total cell numbers | synergistically increased | 
